Data as given in ChEMBL document CHEMBL4616599, “Molecular mechanism of C-phycocyanin induced apoptosis in LNCaP cells” (Bioorg Med Chem, 2020).
Calls of active or inactive are those of the source.

Experiments:
Assay type in all cases: functional, cell-based
LNCaP [1] = test: Induction of apoptosis in human LNCAP cells assessed as increase in cleaved PARP expression at 10 uM measured after 24 hrs by Western blot analysis
LNCaP [2] = test: Induction of apoptosis in human LNCAP cells assessed as up regulation of p53 expression at 10 uM measured after 24 hrs by immunoblot analysis
LNCaP [3] = test: Induction of apoptosis in human LNCAP cells assessed as increase in cleaved PARP expression at 500 ug/ml measured after 24 hrs by western blot analysis
LNCaP [4] = test: Induction of apoptosis in human LNCAP cells assessed as decrease in uncleaved PARP expression at 10 uM measured after 24 hrs by Western blot analysis
LNCaP [5] = test: Induction of apoptosis in human LNCAP cells assessed as up regulation of p21 expression at 10 uM measured after 24 hrs by immunoblot analysis
LNCaP [6] = test: Cytotoxicity against human LNCAP cells assessed as reduction in cell viability at 10 uM after 24 hrs by trypan blue dye exclusion assay

Measured: Activity

CC[C@@]1(O)C(=O)OCc2c1cc1n(c2=O)Cc2cc3c(CN(C)C)c(O)ccc3nc2-1
active: all assays above
